Holding throughout (assay): Kinase inhibitor library screening, PrestoBlue cell viability, 1 or 10 μM, 72 h
The test system of one assay is 501Mel cells (parental). As to conditions: 501Mel Parental. The procedure: (§1) After 72 h of treatment, cell viability was assessed using the PrestoBlue Cell Viability Reagent (ThermoFisher Scientific). Measurements were performed with the CLARIOstar Monochromator microplate reader (BMG Labtech).
(§2) Kinase inhibitor library screening. […] Each cell line was treated in its sensitive form (parental), and also as 2 resistant derivatives, which were made resistant to either Vemurafenib (XP) or Dabrafenib (GP). Drugs were added at 2 different concentrations, 1 and 10 μM, for 72 h and cell viability was assessed using the PrestoBlue Cell Viability assay. Results are depicted as % viability compared to untreated cells. Each cell line was analyzed at least in duplicate. […] (XLSX 95 kb)

Assay [1] relates to IGR37-GP cells (Dabrafenib-resistant). As to conditions: IGR37 GP. The procedure: as §1, §2
For a further assay, the system named is A375 cells (parental). The settings on record: A375 Parental, 72 h. The procedure: as §1, §2
Assay [2] deals with IGR37-XP cells (Vemurafenib-resistant). The settings on record: IGR37 XP. The protocol: as §1, §2
For assay [3], the system named is A375-GP cells (Dabrafenib-resistant). As to conditions: A375 GP. The protocol: as §1, §2
Another assay has as its system IGR37 cells (parental). The settings on record: IGR37 Parental. The procedure:
as §1, §2

Assay [4] concerns 501Mel-GP cells (Dabrafenib-resistant). As to conditions: 501Mel GP. The procedure: as §1, §2
The test system of assay [5] is 501Mel-XP cells (Vemurafenib-resistant). As to conditions: 501Mel XP. The protocol: as §1, §2
Assay [6] deals with A375-XP cells (Vemurafenib-resistant). The settings on record: A375 XP. The procedure:
as §1, §2

Here are results for 8 compounds from publication PMC6364417, “Kinase inhibitor library screening identifies synergistic drug combinations effective in sensitive and resistant melanoma cells” (Journal of Experimental & Clinical Cancer Research : CR, 2019).

In the case of `Cn1cc(-c2ccc3nnc(Sc4ccc5ncccc5c4)n3n2)cn1` [SGX-523], the “cell viability (kinase inhibitor library screening)” value turned out to be 95.0% in the assay on 501Mel cells (parental) (1μΜ, 72 h); 89.4% with 501Mel cells (parental) (10μΜ, 72 h); 94.1% in assay [1] (1μΜ, 72 h); 90.7% in [1] (10μΜ, 72 h); 97.1% in the assay on A375 cells (parental) (10μΜ); 104.5% in the assay with A375 cells (parental) (1μΜ). In addition, the “cell viability (kinase inhibitor library screening)” value was 100.4% in assay [2] (1μΜ, 72 h); 74.3% in assay [2] (10μΜ, 72 h); 89.5% in assay [3] (1μΜ, 72 h); 94.8% in assay [3] (10μΜ, 72 h); 107.3% with IGR37 cells (parental) (1μΜ, 72 h); 94.5% with IGR37 cells (parental) (10μΜ, 72 h). Further, the “cell viability (kinase inhibitor library screening)” value was found to be 82.6% in assay [4] (1μΜ, 72 h); 64.3% in assay [4] (10μΜ, 72 h); 67.2% in assay [5] (1μΜ, 72 h); 58.8% in [5] (10μΜ, 72 h).

With AZD4547, the “cell viability, 501Mel Parental, 10μΜ” value in the assay on 501Mel cells (parental) (10μΜ, 72 h) was determined as 11.5. Moreover, in [6] (1μΜ, 72 h), the “cell viability, A375 XP, 1μΜ” value is given as 100.3. For the same compound, the “cell viability, A375 XP, 10μΜ” value in [6] (10μΜ, 72 h) was determined as 49.7. Moreover, in assay [1] (1μΜ, 72 h), the “cell viability, IGR37 GP, 1μΜ” value came to 93.7. The “cell viability, IGR37 GP, 10μΜ” value in assay [1] (10μΜ, 72 h) came out at 19.5. Also, in the assay on A375 cells (parental) (10μΜ), the “cell viability, A375 Parental, 10μΜ” value was determined as 58.2. Moreover, in assay [2] (1μΜ, 72 h), the “cell viability, IGR37 XP, 1μΜ” value is reported as 94.4. Besides, the “cell viability, IGR37 XP, 10μΜ” value in [2] (10μΜ, 72 h) is reported as 6.4. For the same compound, the “cell viability, IGR37 Parental, 10μΜ” value in the assay on IGR37 cells (parental) (10μΜ, 72 h) stood at 46.6. For the same compound, in [4] (10μΜ, 72 h), the “cell viability, 501Mel GP, 10μΜ” value amounted to 57.3. In [5] (1μΜ, 72 h), the “cell viability, 501Mel XP, 1μΜ” value is on record as 93.2. Besides, in assay [5] (10μΜ, 72 h), the “cell viability, 501Mel XP, 10μΜ” value worked out at 14.1.

Take `CNC(=O)c1ccc(C)c(-n2c(C)cc(OCc3ccc(F)cc3F)c(Br)c2=O)c1` [PH-797804]: the “Cell viability in kinase inhibitor library screening, 501Mel Parental, 1μΜ” value in the assay with 501Mel cells (parental) (1μΜ, 72 h, in %) was 98.2. Also, the “Cell viability in kinase inhibitor library screening, A375 XP, 10μΜ” value in [6] (10μΜ, 72 h) is given as 95.8. Besides, the “Cell viability in kinase inhibitor library screening, A375 Parental, 10μΜ” value in the assay with A375 cells (parental) (10μΜ) is 84.4. The “Cell viability in kinase inhibitor library screening, A375 Parental, 1μΜ” value in the assay on A375 cells (parental) (1μΜ) is on record as 109.2. In [2] (10μΜ, 72 h), this compound displayed a Cell viability in kinase inhibitor library screening, IGR37 XP, 10μΜ of 74.4%. The “Cell viability in kinase inhibitor library screening, IGR37 XP, 1μΜ” value in assay [2] (1μΜ, 72 h, in %) turned out to be 104.2. Moreover, the “Cell viability in kinase inhibitor library screening, A375 GP, 1μΜ” value in [3] (1μΜ, 72 h) stood at 103.3. Besides, the “Cell viability in kinase inhibitor library screening, A375 GP, 10μΜ” value in assay [3] (10μΜ, 72 h) worked out at 87.3. Moreover, the “Cell viability in kinase inhibitor library screening, IGR37 Parental, 1μΜ” value in the assay on IGR37 cells (parental) (1μΜ, 72 h, in %) is on record as 103.0. Moreover, the “Cell viability in kinase inhibitor library screening, 501Mel GP, 1μΜ” value in assay [4] (1μΜ, 72 h, in %) is on record as 106.6. Moreover, the “Cell viability in kinase inhibitor library screening, 501Mel GP, 10μΜ” value in [4] (10μΜ, 72 h, in %) was determined as 91.3. In assay [5] (1μΜ, 72 h, in %), the “Cell viability in kinase inhibitor library screening, 501Mel XP, 1μΜ” value was determined as 90.4. Also, in [5] (10μΜ, 72 h, in %), the “Cell viability in kinase inhibitor library screening, 501Mel XP, 10μΜ” value worked out at 84.3.

On to `N#CC1(c2ccc(NC(=O)c3cccnc3NCc3ccncc3)cc2)CCCC1` [Apatinib (YN968D1)], for which the “cell viability (kinase inhibitor library screening)” value in the assay on 501Mel cells (parental) (1μΜ, in %) is on record as 103.5; in the assay on 501Mel cells (parental) (10μΜ, in %), 103.9; in assay [6] (1μΜ, in %) it was 103.9; in [6] (10μΜ, in %) it was 105.3; in assay [1] (1μΜ, in %), 94.0; in assay [1] (10μΜ, in %) it was 95.0. The “cell viability (kinase inhibitor library screening)” value in assay [2] (1μΜ, in %) is given as 105.2; in [2] (10μΜ, in %), 86.2; in assay [3] (1μΜ, in %), 97.5; in assay [3] (10μΜ, in %) it was 98.6; in the assay on IGR37 cells (parental) (1μΜ, in %) it was 103.0; with IGR37 cells (parental) (10μΜ, in %), 105.2. Also, the “cell viability (kinase inhibitor library screening)” value in assay [4] (1μΜ, in %) was 102.7; in [4] (10μΜ, in %), 98.0; in assay [5] (1μΜ, in %) it was 112.2; in assay [5] (10μΜ, in %) it was 105.3.

On to `CCn1c(N)c(C(=O)NC)c(=O)c2ccc(C#C[C@@](C)(O)COC)nc21` [SAR131675], for which the “cell viability (kinase inhibitor library screening)” value was found to be 96.4 in the assay with 501Mel cells (parental) (1μΜ, in %); 92.6 with 501Mel cells (parental) (10μΜ, in %); 108.8 in [6] (1μΜ, in %); 93.4 in [1] (1μΜ, in %); 96.6 in assay [1] (10μΜ, in %); 94.6 in assay [2] (1μΜ, in %). The “cell viability (kinase inhibitor library screening)” value was 71.4 in assay [2] (10μΜ, in %); 103.2 in assay [3] (1μΜ, in %); 87.6 in assay [3] (10μΜ, in %); 100.2 with IGR37 cells (parental) (1μΜ, in %); 99.7 in the assay with IGR37 cells (parental) (10μΜ, in %); 103.5 in assay [4] (1μΜ, in %). Further, the “cell viability (kinase inhibitor library screening)” value in assay [4] (10μΜ, in %) was determined as 90.9; in assay [5] (1μΜ, in %) it was 103.7; in assay [5] (10μΜ, in %) it was 85.3.

In the case of `Cc1ccccc1-n1c(Cn2ncc3c(N)ncnc32)nc2cccc(C)c2c1=O` [PIK-293], in the assay on 501Mel cells (parental) (10μΜ, 72 h, in %), the “Cell viability in kinase inhibitor library screening, 501Mel Parental, 10μΜ” value is listed as 99.9. The “Cell viability in kinase inhibitor library screening, A375 XP, 1μΜ” value in [6] (1μΜ, 72 h) came out at 106.1. Also, in assay [6] (10μΜ, 72 h), the “Cell viability in kinase inhibitor library screening, A375 XP, 10μΜ” value was determined as 104.4. In assay [2] (10μΜ, 72 h), the Cell viability in kinase inhibitor library screening, IGR37 XP, 10μΜ stood at 77.6%. The “Cell viability in kinase inhibitor library screening, IGR37 XP, 1μΜ” value in assay [2] (1μΜ, 72 h, in %) is on record as 103.2. The “Cell viability in kinase inhibitor library screening, A375 GP, 1μΜ” value in [3] (1μΜ, 72 h) was found to be 97.7. The “Cell viability in kinase inhibitor library screening, A375 GP, 10μΜ” value in assay [3] (10μΜ, 72 h) was found to be 99.7. The “Cell viability in kinase inhibitor library screening, IGR37 Parental, 1μΜ” value with IGR37 cells (parental) (1μΜ, 72 h, in %) worked out at 105.2. The “Cell viability in kinase inhibitor library screening, IGR37 Parental, 10μΜ” value in the assay on IGR37 cells (parental) (10μΜ, 72 h, in %) is listed as 107.6. Also, the “Cell viability in kinase inhibitor library screening, 501Mel GP, 10μΜ” value in [4] (10μΜ, 72 h, in %) is 90.9. In addition, in assay [5] (1μΜ, 72 h, in %), the “Cell viability in kinase inhibitor library screening, 501Mel XP, 1μΜ” value turned out to be 112.1. Moreover, the “Cell viability in kinase inhibitor library screening, 501Mel XP, 10μΜ” value in assay [5] (10μΜ, 72 h, in %) is reported as 91.5.

For the compound `OCCn1cc(-c2cnc3nnn(Cc4ccc5ncccc5c4)c3n2)cn1` [PF-04217903], the “cell viability (kinase inhibitor library screening)” value is recorded as 97.4% in the assay with 501Mel cells (parental) (1μΜ, 72 h); 99.2% in the assay with 501Mel cells (parental) (10μΜ, 72 h); 107.0% in assay [6] (1μΜ, 72 h); 110.9% in assay [6] (10μΜ, 72 h); 105.7% in [1] (1μΜ, 72 h); 91.4% in [1] (10μΜ, 72 h). Besides, the “cell viability (kinase inhibitor library screening)” value in the assay on A375 cells (parental) (1μΜ) is reported as 111.4%; in assay [2] (10μΜ, 72 h), 67.3%; with IGR37 cells (parental) (1μΜ, 72 h), 119.0%; in the assay with IGR37 cells (parental) (10μΜ, 72 h) it was 104.5%; in assay [4] (1μΜ, 72 h), 89.0%; in [4] (10μΜ, 72 h), 82.3%. The “cell viability (kinase inhibitor library screening)” value in assay [5] (1μΜ, 72 h) was found to be 68.7%; in assay [5] (10μΜ, 72 h), 68.6%.

`O=C(O)c1ccc2c(c1)nc(Nc1cccc(Cl)c1)c1ccncc12` [cx-4945 (Silmitasertib)]: in the assay on 501Mel cells (parental) (1μΜ, 72 h, in %), the “Cell viability in kinase inhibitor library screening, 501Mel Parental, 1μΜ” value was found to be 96.6. In addition, in the assay with 501Mel cells (parental) (10μΜ, 72 h, in %), the “Cell viability in kinase inhibitor library screening, 501Mel Parental, 10μΜ” value is on record as 52.6. Besides, the Cell viability in kinase inhibitor library screening, IGR37 GP, 10μΜ in assay [1] (10μΜ, 72 h) worked out at 55.9%. Moreover, the “Cell viability in kinase inhibitor library screening, IGR37 GP, 1μΜ” value in assay [1] (1μΜ, 72 h, in %) was 94.1. The Cell viability in kinase inhibitor library screening, IGR37 XP, 10μΜ in assay [2] (10μΜ, 72 h) is 23.6%. Also, in [2] (1μΜ, 72 h, in %), the “Cell viability in kinase inhibitor library screening, IGR37 XP, 1μΜ” value is 96.8. In addition, the “Cell viability in kinase inhibitor library screening, A375 GP, 1μΜ” value in assay [3] (1μΜ, 72 h) was determined as 93.2. In addition, the “Cell viability in kinase inhibitor library screening, IGR37 Parental, 10μΜ” value in the assay with IGR37 cells (parental) (10μΜ, 72 h, in %) amounted to 86.7. Also, in [4] (1μΜ, 72 h, in %), the “Cell viability in kinase inhibitor library screening, 501Mel GP, 1μΜ” value stood at 93.9. Moreover, the “Cell viability in kinase inhibitor library screening, 501Mel GP, 10μΜ” value in [4] (10μΜ, 72 h, in %) was 31.8. Also, the “Cell viability in kinase inhibitor library screening, 501Mel XP, 1μΜ” value in [5] (1μΜ, 72 h, in %) turned out to be 88.6.
